Experimental data published in US12404244B2, “Pan-KIT kinase inhibitor having quinoline structure and application thereof” (Tarapeutics Science Inc., priority 2018, dated 2025).

Key:
Type in all cases: cell-based
TEL-KIT/D820G-BaF3 = assay: Proliferation of TEL-KIT/D820G-BaF3 cells (CCK-8); conditions: Mus musculus, 72 h, read-out: GI50 TEL-KIT/D820G-BaF3
Source text: (§1) Compounds as provided herein were further evaluated for their inhibitory effects on proliferation of cancer cells by testing their effects on growth of cancer cells. In this example the following cells were used: primary mouse B cells BaF3 (purchased from ATCC), GIST-T1 cells of the human gastrointestinal stromal tumor cell line (expressing wild-type KIT gene) (purchased from Cosmo Bio Co., Ltd. (Japan)). The present lab further constructed and used the following: mouse Tel-Kit-BaF3 (stably expressing KIT wild-type kinase), mouse Tel-Kit/T670I-BaF3 (stably expressing KIT T670I mutant kinase), mouse Tel-Kit/V559A-BaF3 (stably expressing KIT V559A mutant kinase), mouse Tel-Kit/V559D-BaF3 (stably expressing KIT V559D mutant kinase), mouse Tel-Kit/V559G-BaF3 (stably expressing KIT V559G mutant kinase), mouse Tel-Kit/V560D-BaF3 (stably expressing KIT V560D mutant kinase), mouse Tel-Kit/L576P-BaF3 (stably expressing KIT L576P mutant kinase), mouse Tel-Kit/V654A-BaF3 (stably expressing KIT V654A mutant kinase), mouse Tel-Kit/V654A/V559D-BaF3 (stably expressing KIT V654A V559D mutant kinase), mouse Tel-Kit/T670E-BaF3 (stably expressing KIT T670E mutant kinase), mouse Tel-Kit/T670I/V559D-BaF3 (stably expressing KIT T670I V559D mutant kinase), mouse Tel-Kit/S709F-BaF3 (stably expressing KIT S709F mutant kinase), mouse Tel-Kit/D816E-BaF3 (stably expressing KIT D816E mutant kinase), mouse Tel-Kit/D816H-BaF3 (stably expressing KIT D816H mutant kinase), mouse Tel-Kit/D820E-BaF3 (stably expressing KIT D820E mutant kinase), mouse Tel-Kit/D820G-BaF3 (stably expressing KIT D820G mutant kinase), mouse Tel-Kit/D820Y-BaF3 (stably expressing KIT D820Y mutant kinase), mouse Tel-Kit/N822K-BaF3 (stably expressing KIT N822K mutant kinase), mouse Tel-Kit/Y823D-BaF3 (stably expressing KIT Y823D mutant kinase), mouse Tel-Kit/A829P-BaF3 (stably expressing KIT A829P mutant kinase), GIST-T1-T670I cells of the human gastrointestinal stromal tumor cell line (expressing KIT-T670I mutant gene). The above cell lines were constructed by: amplifying respectively the sequences of human KIT and various mutant kinase regions of KIT via PCR, inserting the fragments respectively into MSCV-Puro vectors having a N-terminal TEL fragment and/or a NPM fragment and/or a TPR fragment (purchased from Clontech), transfecting mouse BaF3 cells with the vectors by means of retrovirus to obtain stably transfected cells, removing the growth factor IL-3, and thereby eventually obtaining cell lines that depend on the transferred protein KIT or various mutants of KIT. […]

TEL-KIT/V559G-BaF3 = assay: Proliferation of TEL-KIT/V559G-BaF3 cells (CCK-8); conditions: Mus musculus, 72 h, read-out: GI50 TEL-KIT/V559G-BaF3
Source text: as §1

TEL-KIT/S709F-BaF3 = assay: Proliferation of TEL-KIT/S709F-BaF3 cells (CCK-8); conditions: Mus musculus, 72 h, read-out: GI50 TEL-KIT/S709F-BaF3
Source text: as §1

TEL-KIT/V559A-BaF3 = assay: Proliferation of TEL-KIT/V559A-BaF3 cells (CCK-8); conditions: Mus musculus, 72 h, read-out: GI50 TEL-KIT/V559A-BaF3
Source text: as §1

TEL-KIT/V654A-BaF3 = assay: Proliferation of TEL-KIT/V654A-BaF3 cells (CCK-8); conditions: Mus musculus, 72 h, read-out: GI50 TEL-KIT/V654A-BaF3
Source text: as §1

GIST-T1/T670I = assay: Proliferation of GIST-T1/T670I cells (CCK-8); conditions: Homo sapiens, GISTT1, 72 h, read-out: GI50 GIST-T1/T670I
Source text: as §1, with “gene).” for “gene). The above cell lines were constructed by: amplifying respectively the sequences of human KIT and various mutant kinase regions of KIT via PCR, inserting the fragments respectively into MSCV-Puro vectors having a N-terminal TEL fragment and/or a NPM fragment and/or a TPR fragment (purchased from Clontech), transfecting mouse BaF3 cells with the vectors by means of retrovirus to obtain stably transfected cells, removing the growth factor IL-3, and thereby eventually obtaining cell lines that depend on the transferred protein KIT or various mutants of KIT.”
The cells after incubation were detected using CCK-8 (purchased from MedChem Express, Shanghai, China) cell viability assay kit (CCK-8 may be reduced by dehydrogenase in living cells to a highly water-soluble yellow formazan product, and the amount of the resultant formazan is proportional to the number of living cells), the number of living cells were quantified with a microplate reader, and GI50 of the compounds and the control compounds were calculated (the results shown in Table 2 and Table 3).

TEL-KIT/A829P-BaF3 = assay: Proliferation of TEL-KIT/A829P-BaF3 cells (CCK-8); conditions: Mus musculus, 72 h, read-out: GI50 TEL-KIT/A829P-BaF3
Source text: as §1

COc1cc2nccc(Oc3ccc(NC(=O)Cc4ccc(C)c(C(F)(F)F)c4)cc3)c2cc1OC [Example 1, N-(4-((6,7-dimethoxyquinolin-4-yl)oxy)phenyl)-2-(4-methyl-3-(trifluoromethyl)phenyl)acetamide] was tested, and the GI50 (TEL-KIT/D820G-BaF3) was 0.009 µM, the GI50 (TEL-KIT/V559G-BaF3) was under 0.0003 µM and the GI50 (TEL-KIT/S709F-BaF3) was 0.011 µM. It also gave a GI50 (TEL-KIT/V559A-BaF3) of 0.016 µM, a GI50 (TEL-KIT/V654A-BaF3) of 0.11 µM and a GI50 (GIST-T1/T670I) of 0.016 µM. The GI50 (TEL-KIT/A829P-BaF3) was 0.008 µM.
